Measured values taken from US7253176B1, “Immunosuppressive effects of 8-substituted xanthine derivatives” (K.U. Leuven Research & Development, priority 2000, dated 2007).

Experiments:
Format in all cases: cell-based, human
Highly purified T cells [1] = test: T cell proliferation induced by anti-CD28 mAb+PMA (BrdU); settings: anti-CD28 mAb+PMA pathway, read-out: IC50 aCD28
From the text: (§1) Various models may be used for testing an immunosuppressive effect. In vivo, for example, different transplantation models are available. They are strongly influenced by different immunogenicities, depending on the donor and recipient species used and depending on the nature of the transplanted organ. The survival time of transplanted organs can thus be used to measure the suppression of the immune response. In vitro, there exist also various models. The most used are lymphocyte activation tests. Usually activation is measured via lymphocyte proliferation. Inhibition of proliferation thus always means immunosuppression under the experimental conditions applied. There exist different stimuli for lymphocyte activation: • coculture of lymphocytes of […] (MLR=mixed lymphocyte reaction): lymphocytes expressing different minor and major antigens of the HLA-DR type (=allogens) activate each other non-specifically. • CD3 assay: here there is an activation of the T-lymphocytes via an exogenously added antibody (OKT3). This antibody reacts against the CD3 molecule located on the lymphocyte membrane. This molecule has a […]. […] This molecule is also located on the lymphocyte membrane, and delivers strong costimulatory signals. […] Reagents
T cells were purified by removing non-T cells. Briefly, monocytes were removed by cold agglutination. The resulting lymphoid cells were further purified by a cell enrichment immunocolumn [Cellect Human T (Biotex, Edmonton, Alberta, Canada)] by a process of negative selection. More than 95% of the B cells were removed with this procedure. After depletion, the resulting T cell preparation was highly purified explaining these cells could not be activated by PHA or rIL-2 alone at concentrations capable of stimulating RBMC prior to deletion.
(§2) Measurements of T Cell Proliferations Induced by Anti-CD3 mAB+PMA or Anti-CD28 mAb+PMA
(§3) Highly purified T cells (10^6/ml) were stimulated by immobilized anti-CD3 or anti-CD28 mAb in the presence of PMA. Anti-CD3 mAb (CLB-CD3; CLB, Amsterdam, The Netherlands) were fixed on the 96-microwell plates by incubating the wells with 50 μl of mAb solution […] 50 μl (1/650 dilution in culture medium) was added directly to the wells. Further, 20 μl PMA (Sigma, St. Louis, Mo., USA) solution (final concentration: 0.5 ng/ml) was added. Subsequently, 20 μl of immunosuppressants were added by serial dilution in triplicate wells. Finally 100 μl of the T cell suspension (10^6/ml) was added. After 48-hour incubation at 37° C. in 5% CO2 20 μl BrdU (100 μM solution) (Cell Proliferation Elisa, Boehringer-Mannheim Belgium) was added to each well. After a further overnight incubation the T cell proliferation was measured using a calorimetric immunoassay for qualification of cell proliferation based on measurements of the incorporation of BrdU during DNA synthesis. The optical density (OD) was measured by a Behring EL311 place reader at 450 nm (reference wavelength: […]). The percent suppression of proliferation by drugs was counted using the formula: […]

Highly purified T cells [2] = test: T cell proliferation induced by anti-CD3 mAb+PMA (BrdU); settings: for IC50: read-out: IC50 aCD3
From the text: T cells were purified by removing non-T cells. Briefly, monocytes were removed by cold agglutination. The resulting lymphoid cells were further purified by a cell enrichment immunocolumn [Cellect Human T (Biotex, Edmonton, Alberta, Canada)] by a process of negative selection.
as §2, §3

[3] = tested on: Peripheral blood mononuclear cells (PBMC); test: Mixed lymphocyte reaction (MLR), [3H]-thymidine incorporation
From the text: as §1
Mixed Lymphocyte Reaction
Peripheral blood mononuclear cells (PBMC) were isolated from heparinized peripheral blood by density gradient centrifugation over Lymphoprep (Nycomed, Maorstua, Norway). Allogeneic PBMC or EBV-transformed human B cells [RPMI1788 (ATCC name CCL156)] which strongly express B7-1 and B7-2 were used as stimulator calls after irradiation with 30 Gy. MLR was performed in triplicate wells. After 5 days incubation at 37° C., 1 μCi [^3H]-thymidine was added to each cup. After a further 16 hours incubation, cells were harvested and counted in a β-counter.
The percent suppression of proliferation by drugs was counted using the formula: […]

[4] = lowest concentration giving 50% suppression of the MLR
[5] = Homo sapiens, T-cell, anti-CD3 mAb+PMA pathway
[6] = Homo sapiens, PBMC, lowest concentration giving 50% suppression of the MLR

Compound | IC50 (Highly purified T cells [1]) [µM] | IC50 (Highly purified T cells [2]; anti-CD3 mAb+PMA pathway) [µM] | IC50 [3, 4] [µM] | other results
1,3,7-trimethyl-8-(4-trifluoromethylfenyl)-xanthine [Compound 10] | 30 | 20 | 50 | –
1,3,7-tripropyl-8-(4-chlorofenyl)xanthine [Compound 118] | 20 | 15 | 15 | –
1,3,7-tripropyl-8-fenylxanthine [Compound 113] | 90 | 110 | 20 | –
1,3-dimethyl-7-allyl-8-[(4-trifluoromethyl)-fenyl]xanthine [Compound 82] | 80 | 80 | 25 | –
1,3-dimethyl-7-propyl-8-fenylxanthine [Compound 112] | 40 | 45 | 20 | –
1,3-dipropyl-2-thio-8-[4-((((N-2-aminoethyl)-amino)carbonyl)methyl)oxy)fenyl]xanthine [Compound 35] | 70 | 50 | 50 | –
1,3-dipropyl-8-[4(dimethylamino(ethyl(amino-(sulfonyl))))fenyl]xanthine [Compound 9] | 50 | 40 | 25 | –
1,3-dipropyl-8-[4-dimethylamino(propyl(amino-(sulfonyl))))fenyl]xanthine [Compound 40] | 70 | 60 | 25 | –
1,7-diallyl-3-methyl-8-fenylxanthine [Compound 8] | 80 | 35 | 30 | –
1,7-diallyl-3-propyl-8-(4-chlorofenyl)xanthine [Compound 119] | 30 | 50 | 15 | –
1,7-diallyl-3-propyl-8-fenylxanthine [Compound 114] | 70 | 85 | 15 | –
CC#Cn1c(=O)c2c(ncn2C)n(C)c1=O [Compound 1, 1-propynyl-3,7-dimethylxanthine] | – | – | – | IC50 (Highly purified T cells [1]; Homo sapiens, T-cell): > 200 µM; IC50 (Highly purified T cells [2]; [5]): 150 µM; IC50 [3, 6]: > 200 µM
C#CCn1cnc2c1c(=O)n(C)c(=O)n2CC#C [Compound 3, 1-methyl-3,7-dipropynylxanthine] | 100 | 150 | 150 | –
CCCn1c(=O)c2[nH]c(-c3ccsc3)nc2n(CCC)c1=O [Compound 15] | 170 | > 200 | – | –
Cn1c(=S)c2[nH]c(C3CCCC3)nc2n(C)c1=O [Compound 17] | 40 | 30 | 80 | –
Cn1cnc2c1c(=O)n(CCCC(=O)O)c(=O)n2C [Compound 23, 1-(3-carboxypropyl)-3,7-dimethylxanthine] | – | – | – | IC50 (Highly purified T cells [1]; Homo sapiens, T-cell): > 200 µM; IC50 (Highly purified T cells [2]; [5]): > 200 µM; IC50 [3, 6]: > 200 µM
CCOC(=O)CCCn1c(=O)c2c(ncn2C)n(C)c1=O [Compound 24, 1-(3-ethoxycarbonyl)propyl-3,7-dimethylxanthine] | 150 | 170 | > 200 | –
CC(O)CCCCn1c(=O)c2c(ncn2C)n(C)c1=O (stereo not shown) [Compound 25] | 160 | 140 | > 200 | –
CCCn1cnc2c1c(=O)n(CCCCC(C)O)c(=O)n2C (stereo not shown) [Compound 26] | 100 | 100 | 100 | –
CCCn1c(=O)c2[nH]c(-c3ccc(OCC(=O)O)cc3)nc2n(CCC)c1=S [Compound 28] | 75 | 150 | 120 | –
CCCn1c(=O)c2[nH]c(-c3ccc(OCC(=O)OCC)cc3)nc2n(CCC)c1=S [Compound 29] | 130 | 150 | > 200 | –

Compound | IC50 (Highly purified T cells [1]) [µM] | IC50 (Highly purified T cells [2]; anti-CD3 mAb+PMA pathway) [µM] | IC50 [3, 4] [µM] | other results
Cn1c(-c2ccc(S(N)(=O)=O)cc2)nc2c1c(=O)[nH]c(=O)n2C [Compound 37] | 150 | 150 | > 200 | –
CCCn1c(=O)c2[nH]c(-c3ccc(C(F)(F)F)cc3)nc2n(CCC)c1=O [Compound 48] | 150 | 160 | 180 | –
Cn1c(=O)c2[nH]c(-c3ccco3)nc2n(C)c1=O [Compound 58] | 170 | 160 | > 200 | –
CCCn1c(=O)c2[nH]c(-c3ccco3)nc2n(CCC)c1=O [Compound 59] | 135 | 155 | 15 | –
Cn1c(=O)c2[nH]c(-c3ccco3)nc2n(C)c1=S [Compound 60] | 190 | – | > 200 | –
CCCn1c(=O)c2[nH]c(-c3ccco3)nc2n(CCC)c1=S [Compound 61] | 110 | 170 | 100 | –
Cn1c(=O)c2[nH]c(C3CCCC3)nc2n(C)c1=O [Compound 62] | 190 | > 200 | > 200 | –
CCCn1c(=O)c2[nH]c(C3CCCC3)nc2n(CCC)c1=O [Compound 63] | 100 | 135 | > 200 | –
Cn1c(=O)c2[nH]c(C3CCCC3)nc2n(C)c1=S [Compound 64] | > 200 | > 200 | > 200 | –
CCCn1c(=O)c2[nH]c(C3CCCC3)nc2n(CCC)c1=S [Compound 65] | 75 | 135 | > 200 | –
Cn1c(=O)c2c(nc(C3CCCC3)n2C)n(C)c1=S [Compound 66] | 170 | 170 | > 200 | –
C#CCn1c(=O)n(C)c(=O)c2c1ncn2C [Compound 67, 1,7-dimethyl-3-propynylxanthine] | – | > 200 | > 200 | –
Cn1c(=O)c2[nH]cnc2n(CC(C)(C)C)c1=O [Compound 69] | 45 | 110 | 120 | –
Cn1cnc2c1c(=O)[nH]c(=O)n2CC(C)(C)C [Compound 70] | 140 | 180 | > 200 | –
CC(C)n1c(=O)n(C)c(=O)c2[nH]cnc21 [Compound 71] | – | – | 160 | –
Cn1c(-c2ccc(C(F)(F)F)cc2)nc2c1c(=O)[nH]c(=O)n2C [Compound 83] | 150 | > 200 | > 200 | –
Cn1c(=O)c2[nH]c(-c3ccc(-c4ccccc4)cc3)nc2n(C)c1=O [Compound 115] | 160 | > 200 | 110 | –
CCCn1c(=O)c2c(nc(-c3ccc(-c4ccccc4)cc3)n2CCC)n(CCC)c1=O [Compound 116, 1,3,7-tripropyl-8-(p-bifenyl)xanthine] | 40 | 45 | 160 | –
C=CCn1c(=O)c2c(nc(-c3ccc(-c4ccccc4)cc3)n2CC=C)n(CCC)c1=O [Compound 117, 1,7-diallyl-3-propyl-8-(p-bifenyl)xanthine] | 30 | 30 | 15 | –
Cn1c(=O)c2[nH]c(-c3ccc(S(N)(=O)=O)cc3)nc2n(C)c1=O [Compound 125] | 90 | 150 | 160 | –
C=CC[C@@H]1/C=C(\C)C[C@H](C)C[C@H](OC)[C@H]2O[C@@](O)(C(=O)C(=O)N3CCCC[C@H]3C(=O)O[C@H](/C(C)=C/[C@@H]3CC[C@@H](O)[C@H](OC)C3)[C@H](C)[C@@H](O)CC1=O)[C@H](C)C[C@@H]2OC [FK506, reference compound] | – | – | – | IC50 (Highly purified T cells [2]; Homo sapiens, T-cell, immunosuppressants for comparison, anti-CD3 mAb+PMA): 0.001 µM; activity in the anti-CD3+PMA test (Highly purified T cells [2]; in words): active; IC50 ([3]; Homo sapiens, PBMC, immunosuppressants for comparison): 0.001 µM
